Data published in US12234299B2, “Peptides for inducing bacteriocin synthesis and methods to identify and/or select and/or optimize the same” (SYNGULON S.A., priority 2018, dated 2025).

Key:
sptA promoter (PsptA) = assay: PsptA-luxAB activity with xylose-induced intracellularly expressed peptides; type: cell-based, Streptococcus salivarius
Excerpt: (§1) To generate the two DNA libraries encoding randomized sequence of small peptides, we performed overlapping PCRs to graft fragments encompassing the follow features: (1) a 5′ recombination arm (for the ectopic tRNA^ser locus); (2) the xylR gene that codes for the xylose responsive regulator; (3) either Pxyl1 (library I) or Pxyl2 (library II) translationally-fused to a 12 codon long gene, for which the last 7 are randomized; (4) the spec gene; (5) a 3′ recombination arm (for the ectopic tRNA^ser locus). To obtain the randomized DNA stretch, we used a 78 nucleotide long primer degenerated on 21 contiguous positions. Next, we transformed these two libraries in strains containing the sptA promoter translationally-fused to the cat gene (chloramphenicol resistance) in which the associated spec gene was excised by the previously described cre-lox method. The initial background of these strains were either a comR-overexpressing (Pxyl1-comR) or a salivaricin-deprived (Δslv5) strain. We plated transformed cells on solid medium supplemented with xylose (either 0.1 or 1%), chloramphenicol ([…]) and spectinomycin ([…]) and grew overnight. We restreaked single colonies on fresh chloramphenicol and spectinomycin solid medium supplemented or not with xylose.
(§2) Overnight precultures were diluted at a final OD600 of 0.05. A volume of 300 μl of culture samples was incubated in the wells of a sterile covered white microplate with a transparent bottom (Greiner, Alphen a/d Rijn, The Netherlands) for 75 min at 37° C. and then supplemented with synthetic peptides (1 μM, except if otherwise stated) or DMSO, and xylose where required. Growth (OD600) and luciferase (Lux) activity (expressed in relative light units) was monitored at 10 min intervals during 24 h in a multi-wells plate reader (Hidex Sense, Hidex, Turku, Finland) as previously described (Fontaine et al., 2013).

[1] = tested on: sptA promoter (PsptA), ScuR/SarF system; assay: Luciferase (luxAB) promoter activity of PsptA with exogenous synthetic peptides; type: cell-based, Streptococcus salivarius HSISS4; conditions: for Maximal activity of PsptA exposed to sBI7 mutant peptides, low concentration: 0.001 μM (1 nM) peptide, FIG. 3C; for Maximal activity of PsptA exposed to sBI7 mutant peptides, high concentration: 1 μM peptide, FIG. 3E
Method: as §2

[2] = tested on: bacteriocin gene promoters (salivaricin promoters); assay: Luciferase (luxAB) activity of bacteriocin gene (salivaricin) promoters; type: cell-based, Streptococcus salivarius HSISS4; conditions: 1 μM; FIG. 7
Method: as §2

Candida species = conditions: Shekh and Roy (2012); cited from earlier work
ScuR = assay: Mobility shift assay (EMSA) of promoter probes with purified ScuR and synthetic peptide; type: binding, Streptococcus salivarius; conditions: ScuR 4 μM; peptide 2:2 dilutions from 20 μM; FIG. 10B
Method: All double-stranded DNA fragments (30 or 40 bp) were obtained from annealing of single-stranded Cy3-labelled (at 5′ end) and unlabeled oligonucleotides. Typically, a gel shift reaction (20 μl) was performed in a binding buffer (20 mM Tris-HCl pH 8.0, 150 mM NaCl, 1 mM EDTA, 1 mM DTT, 10% glycerol, 1 mg ml-1 BSA) and contained 150 ng labelled probe and […] StrepTag proteins. When necessary, […] of ComS peptides (unless otherwise stated) are added. The reaction is incubated at 37° C. for 10 min prior to loading of the samples on a native TBE 5% gel. The gel is next subjected to 80 V for approximately 1 h in TBE buffer. DNA complexes were detected by fluorescence on the Ettan DIGE Imager with bandpass excitation filters (nm): 540/25 (Cy3) or 635/30 (Cy5) and bandpass emission filters: 595/25 (Cy3) or 680/30 (Cy5) (GE Healthcare, Waukesha, WI).
The PCR-amplified scuR-StrepTag and gene sarF-StrepTag were cloned into the pBAD-comR-ST vector (see supplemental information). The ComR-StrepTag, ScuR-StrepTag and SarF-StrepTag recombinant proteins were overproduced in E. coli and purified as previously described (Fontaine et al., 2013) in standard native conditions on Strep-Tactin agarose beads (IBA).

[3] = tested on: fungal microbial organism; conditions: literature; cited from earlier work
[4] = tested on: sptA promoter (PsptA) fused to cat, ScuR/SarF; assay: Randomized peptide screen (PsptA-cat, chloramphenicol resistance on xylose); type: cell-based, Streptococcus salivarius; conditions: xylose 0.1 or 1%; PsptA-cat reporter
Excerpt: as §1

[5] = tested on: pathogenic Gram-positive and Gram-negative bacteria; conditions: Acuna et al. (2012); cited from earlier work

With “MIAILPFWLILG [BI7, genome-encoded screen peptide]” the “xylose-driven PsptA activity in comR or sarF deletion backgrounds” value (sptA promoter (PsptA); 0.1% xylose, FIG. 2D) was “neither comR nor sarF deletion has a dramatic effect” and the “xylose-driven PsptA activity in scuR deletion background” value (sptA promoter (PsptA); 0.1% xylose, FIG. 2D) was “annihilates both xylose induction and basal leaky expression”.

For “sBI7^W→A: sBI7 variant, ultra-conserved tryptophan substituted by alanine (LPFALILG)”, the “Maximal activity of PsptA exposed to sBI7 mutant peptides, low concentration” value (“Maximal activity … low concentration” for short) [1] was “neither alanine (sBI7^W→A) nor phenylalanine (sBI7^W→F) variants sustains luciferase transcription” and the “Maximal activity of salivaricin (bacteriocin gene) promoters exposed to mutant peptides” value (“Maximal activity of salivaricin” for short) [2] was “total inefficacy”.

For “WLPPAGLLGRCGRWFRPWLLWLQ SGAQY KWLGNLFGLGPK (WLPPAGLLGRCGRWFRPWLLWLQSGAQYKWLGNLFGLGPK; Enterococcus faecalis peptide)”, the “neutralizing activity against Candida species” value (Candida species) is listed as “neutralizing activity against Candida species”.

For “LAFWDSLGLLL [LAFWDSLG with a triple leucine extension at the C-terminus (precursor peptide)]”, the “induction of the sptA promoter in vivo” value ([1]; 1 μM, FIG. 10A) was “able to induce the sptA promoter in vivo”, the “PsptA induction of the longer peptide relative to the shorter one” value ([1]; 1 μM, induction magnitude comparable to sBI7, FIG. 10A) was “much more active at 1 μM concentration than the shorter one” and the “ScuR binding to PsptA probe” value (ScuR) was “requires extreme concentration”.

For “sBI7^G→A: sBI7 variant, C-terminal glycine substituted by alanine (LPFWLILA)”, the “Maximal activity … low concentration” value [1] was “decreases the PsptA response”, the “Maximal activity of PsptA exposed to sBI7 mutant peptides, high concentration” value [1] was “activate Pcat at a similar range than the WT sBI7 peptide” and the “Maximal activity of salivaricin” value [2] was “low to high activation disability”.

With “sBI7^W→F: sBI7 variant, ultra-conserved tryptophan substituted by phenylalanine (LPFFLILG)” the “Maximal activity … low concentration” value [1] was “neither alanine (sBI7^W→A) nor phenylalanine (sBI7^W→F) variants sustains luciferase transcription”, the “Maximal activity of PsptA exposed to sBI7 mutant peptides, high concentration” value [1] was “activate Pcat at a similar range than the WT sBI7 peptide” and the “Maximal activity of salivaricin” value [2] was “low to high activation disability”.

In the case of botrycidin AJ1316, the antifungal activities [3] is given as “antifungal activities”.

With “LAFWDSLG [Leu-Ala-Phe-Trp-Asp-Ser-Leu-Gly]” the “induction of the sptA promoter in vivo” value ([1]; 1 μM, FIG. 10A) was “able to induce the sptA promoter in vivo” and the “ScuR binding to PsptA probe” value (ScuR) was “more intense”.

In the case of “MIAILRPH [BM1, irrelevant genome-encoded peptide, negative control clone, reference compound]”, the “growth on chloramphenicol with vs without xylose” value [4] is reported as “xylose-independent growth” and the “potentiation of PsptA-luxAB promoter activity by xylose addition” value (sptA promoter (PsptA); xylose 0.1% or 1% vs mock, FIG. 2B) is reported as “no effect”.

B1: Ent35-MccV: hybrid bacteriocin: N-terminal glycine, Enterocin CRL35, a linker comprising three glycines, and a C-terminal Microcin V (protein)
chain: GKYYGNGVSCNKKGCSVDWGRAIGIIGNNSAANLATGGAAGWKSGGGASGRDIAMAIGTLSGQFVAGGIGAAAGGVAGGAIYDYASTHKPNPAMSPSGLGGTIKQKPEGIPSEAWNYAAGRLCNWSPNNLSDVCL
modifications: Hybrid bacteriocin Ent35-MccV
notes: hybrid bacteriocin: N-terminal glycine, Enterocin CRL35, a linker comprising three glycines, and a C-terminal Microcin V
For B1, the antimicrobial activity [5] is given as “displays antimicrobial activity against pathogenic Gram-positive and Gram-negative bacteria”.
